Assay results from patent US10828301B2, “2,4-pyrimidinediamine compounds and their uses” (Rigel Pharmaceuticals, Inc, priority 2002, dated 2020).
pIC50: −log10 of the molar value. Structures can show the parent of a compound that is named as a salt. Where two headings read alike, the source gives them in different places.

How the values were obtained:
Format in all cases: cell-based
[1] = system: bone marrow derived mast cells (BMMC); assay: BMMC high cell density IgE activation: degranulation (hexosiminidase, histamine), leukotriene (LTC4) and cytokine (TNFalpha, IL-6) assays; conditions: Mus musculus, anti-IgE activation, hexosaminidase release, read-out: BMMC anti-IgE hexos IC50
Description: After sensitizing, cells are counted, pelleted (1000 rpm, 5-10 minutes), and resuspended at 1-3×10^6 cells/ml in MT buffer. Add 100 ul of cell suspension to each well and 100 ul of compound dilutions. The final vehicle concentration is 0.5% DMSO. Incubate at 37° C. (5% CO2) for 1 hour. After 1 hour of compound treatment, stimulate cells with 6× stimulus (60 ng/ml DNP-BSA). Mix wells with the cells and allow plates to incubate at 37° C. (5% CO2) for one hour. After 1 hour incubation, pellet cells (10 minutes, 1000 RPM) and collect 200 ul per well of the supernatant, being careful not to disturb pellet, and transfer to a clean tube or 96-well plate. Place the supernatant plate on ice. During the 4-5 hour step (see next) perform the hexosiminidase assay. Resuspend cell pellet in 240 ul WEI-conditioned media containing 0.5% DMSO and corresponding concentration of compound. Incubate BMMC cells for 4-5 hours at 37° C. (5% CO2). After incubation, pellet cells (1000 RPM, 10 minutes) and collect 225 ul per well and place in −80° C. until ready to perform ELISAS. ELISAS are performed on appropriately diluted samples (determined empirically for each donor cell population so that the sample measurement falls within the standard curve) following the supplier's instructions.
Add 50 uL of BMMC cell supernatant (see above) to the hexoseaminidase substrate, place at 37° C. for 30 minutes and read the plate at 5, 10, 15, and 30 minutes on a spectrophotometer.

[2] = system: cultured human mast cells (CHMC); assay: CHMC low cell density IgE activation: tryptase and LTC4 assays; conditions: Homo sapiens, Mast cell, Low Density CHMC, anti-IgE activation
Procedure, shortened: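 Cultured human mast cells at low density (1000-1500 per well) rested 1 h at 37° C, then stimulated with anti-IgE for 30 min at 37° C. Supernatant tryptase measured with fluorogenic substrate (30 min, room temperature); LTC4 quantified by ELISA on diluted supernatant.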

[3] = system: ionophore-induced degranulation of mast and/or basophil cells; assay: Ionophore (ionomycin or A23187)-induced degranulation counter screen; conditions: high density BMMC, ionomycin activation, hexosaminidase release, read-out: BMMC Ionomycin Hexos. IC50
Source text: In addition to the FcεRI or FcγRI degranulation pathways discussed above, degranulation of mast and/or basophil cells can be induced by other agents. For example, ionomycin, a calcium ionophore that bypasses the early FcεRI or FcγRI signal transduction machinery of the cell, directly induces a calcium flux that triggers degranulation. Referring again to FIG. 2, activated PLCγ initiates pathways that lead to, among other things, calcium ion mobilization and subsequent degranulation. As illustrated, this Ca^2+ mobilization is triggered late in the FcεRI signal transduction pathway. […] Other ionophores that induce degranulation in this manner include A23187. The ability of granulation-inducing ionophores such as ionomycin to bypass the early stages of the FcεRI and/or FcγRI signaling cascades may be used as a counter screen to identify active compounds of the invention that specifically exert their degranulation-inhibitory activity by blocking or inhibiting the early FcεRI or FcγRI signaling cascades, as discussed above.
Assays suitable for determining the IC50 of ionophore-induced degranulation include any of the previously-described degranulation assays, with the modification that the cells are stimulated or activated with a degranulation-inducing calcium ionophore such as ionomycin or A23187 (A.G. Scientific, San Diego, Calif.) instead of anti-IgE antibodies or an IgE-specific allergen. Specific assays for assessing the ability of a particular 2,4-pyrimidinediamine compound of the invention to inhibit ionophore-induced degranulation are provided in the Examples section.

[4] = system: basophils in whole human peripheral blood; assay: Basophil IgE activation: histamine release assay; conditions: anti-IgE activation
Description: The basophil activation assay was carried out using whole human peripheral blood from donors allergic to dust mites with the majority of the red blood cells removed by dextran sedimentation. Human peripheral blood was mixed 1:1 with 3% dextran T500 and RBCs were allowed to settle for 20-25 min. The upper fraction was diluted with 3 volumes of D-PBS and cells were spun down for 10 min at 1500 rpm, RT. Supernatant was aspirated and cells were washed in an equal volume MT-buffer. Finally, cells were resuspended in MT-buffer containing 0.5% DMSO in the original blood volume. 80 uL cells were mixed with 20 uL compound in the presence of 0.5% DMSO, in triplicate, in a V-bottom 96-well tissue culture plate. A dose range of 8 compound concentrations was tested resulting in a 10-point dose response curve including maximum (stimulated) and minimum (unstimulated) response. […] The cells were stimulated for 30 minutes at 37° C., 5% CO2. The plate was spun for 10 min at 1500 rpm at room temperature and 80 uL the supernatant was harvested for histamine content analysis using the histamine ELISA kit supplied by Immunotech. The ELISA was performed according to supplier's instructions.

[5] = system: basophils in whole human peripheral blood; assay: Basophil ionomycin activation: histamine release assay
Description: Assays for ionomycin-induced basophil cell degranulation were carried out as described for the Basophil IgE or Dustmite Activation Assay (Section 6.4.6, supra), with the exception that following incubation with compound, cells were stimulated with 20 μl of 2 μM ionomycin.

[6] = system: cultured human mast cells (CHMC); assay: CHMC low cell density ionomycin activation: tryptase assay; conditions: Homo sapiens, Mast cell, Low Density CHMC, ionomycin activation
[7] = hexosaminidase readout, read-out: CHMC anti-IgE Hexos.
[8] = hexosaminidase readout, read-out: CHMC Ionomycin Hexos.

Row | pIC50 [1] | pIC50 [2, 7] | Structure (SMILES) | pIC50 ([3]; Mus musculus) | other results
1 | < 5.00 | < 5.00 | Fc1ccc(Nc2ncc(F)c(Nc3ccc4c(c3)OCCO4)n2)cc1 [Compound R926220, N4-(3,4-Ethylenedioxyphenyl)-N2-(4-fluorophenyl)-5-fluoro-2,4-pyrimidinediamine] | < 5.00 | –
2 | 5.35 | 5.04 | CCOc1ccc(Nc2ccnc(Nc3ccc(OCC)cc3)n2)cc1 [Compound R926069, N2,N4-Bis(4-ethoxyphenyl)-2,4-pyrimidinediamine] | 5.36 | –
3 | – | – | Fc1cnc(Nc2ccc3c(c2)OC(F)(F)C(F)(F)O3)nc1Nc1ccc2c(c1)OC(F)(F)C(F)(F)O2 [Compound R926037, N2,N4-Bis(3,4-tetrafluoroethylendioxyphenyl)-5-fluoro-2,4-pyrimidinediamine] | – | pIC50 [4]: < 5.00; pIC50 [3]: < 5.00; pIC50 [5]: < 5.00
4 | < 5.00 | – | Fc1cnc(Nc2ccc(Cl)c(C(F)(F)F)c2)nc1Nc1ccc(Cl)c(C(F)(F)F)c1 [Compound R926039, N2,N4-Bis(4-chloro-3-trifluoromethylphenyl)-5-fluoro-2,4-pyrimidinediamine] | < 5.00 | pIC50 ([4]; Homo sapiens): < 5.00; pIC50 ([5]; Homo sapiens): < 5.00
5 | < 5.00 | < 5.00 | Fc1ccc(Nc2ncc(F)c(Nc3ccc(F)cc3)n2)cc1 [Compound R926224, N2,N4-Bis(4-fluorophenyl)-5-fluoro-2,4-pyrimidinediamine] | < 5.00 | –
6 | – | – | Fc1cnc(Nc2ccc(N3CCOCC3)cc2)nc1Nc1ccc(N2CCOCC2)cc1 [Compound R926114, N2,N4-Bis[4-(N-morpholino)phenyl]-5-fluoro-2,4-pyrimidinediamine] | – | pIC50 [3]: < 5.00
7 | 5.18 | – | Fc1cnc(Nc2ccc(Cl)cc2)nc1Nc1ccc(Cl)cc1 [Compound R926206, N2,N4-Bis(4-chlorophenyl)-5-fluoro-2,4-pyrimidinediamine] | 5.07 | pIC50 ([4]; Homo sapiens): < 5.00; pIC50 ([5]; Homo sapiens): < 5.00
8 | < 5.00 | < 5.00 | CC(C)(C)c1ccc(Nc2ncc(F)c(Nc3ccc(C(C)(C)C)cc3)n2)cc1 [Compound R926222, N2,N4-Bis(4-tert-butylphenyl)-5-fluoro-2,4-pyrimidinediamine] | < 5.00 | –
9 | – | – | CCOc1ccc(Nc2nc(Nc3ccc4c(c3)OCCO4)ncc2F)cc1 [Compound R926213, N4-(4-Ethoxyphenyl)-N2-(3,4-ethylenedioxyphenyl)-5-fluoro-2,4-pyrimidinediamine] | – | pIC50 ([6]; tryptase readout, read-out: CHMC Ionomycin Tryptase): 5.26; pIC50 ([4]; Homo sapiens): 5.76; pIC50 ([2]; tryptase readout, read-out: CHMC anti-IgE Tryptase): 5.79; pIC50 ([5]; Homo sapiens): < 5.00
10 | < 5.00 | 5.46 | COc1cccc(Nc2ncc(F)c(Nc3cccc(OC)c3)n2)c1 [Compound R926065, N2,N4-Bis(3-methoxyphenyl)-5-fluoro-2,4-pyrimidinediamine] | < 5.00 | –
11 | 5.13 | < 5.00 | CCOc1ccc(Nc2ncc(C)c(Nc3ccc(OCC)cc3)n2)cc1 [Compound R926068, N2,N4-Bis(4-ethoxyphenyl)-5-methyl-2,4-pyrimidinediamine] | 5.09 | –
12 | < 5.00 | < 5.00 | Fc1ccc(Nc2ncc(F)c(Nc3ccc4c(c3)OCCO4)n2)cc1Cl [Compound R926218, N2-(3-Chloro-4-fluorophenyl)-N4-(3,4-ethylenedioxyphenyl)-5-fluoro-2,4-pyrimidinediamine] | < 5.00 | –
13 | 5.60 | 5.96 | CC(C)(C)c1ccc(Nc2ncc(F)c(Nc3ccc4c(c3)OCCO4)n2)cc1 [Compound R926219, N2-(4-tert-Butylphenyl)-N4-(3,4-ethylenedioxyphenyl)-5-fluoro-2,4-pyrimidinediamine] | 5.49 | pIC50 [6, 8]: 5.17
14 | – | – | O=C(c1cc2cc(Nc3ncc(F)c(Nc4ccc5c(c4)OCCO5)n3)ccc2o1)N1CCNCC1 [Compound R926501, N4-(3,4-Ethylenedioxyphenyl)-5-fluoro-N2-[2-(N-piperazino)carbonylbenzofuran-5-yl]-2,4-pyrimidinediamine Hydrogen Chloride Salt] | – | pIC50 [5]: < 5.00
15 | 5.23 | 5.21 | CCOc1cccc(Nc2ncc(F)c(Nc3cccc(OCC)c3)n2)c1 [Compound R926064, N2,N4-Bis(3-ethoxyphenyl)-5-fluoro-2,4-pyrimidinediamine] | 5.14 | –
16 | 5.70 | 5.72 | COc1ccc(Nc2nc(Nc3cccc(O)c3)ncc2F)cc1OC [Compound R926147, N4-(3,4-Dimethoxyphenyl)-5-fluoro-N2-(3-hydroxyphenyl)-2,4-pyrimidinediamine] | 5.15 | pIC50 [6, 8]: < 5.00
17 | < 5.00 | < 5.00 | Fc1ccc(Nc2ncc(F)c(Nc3ccc(F)c(Cl)c3)n2)cc1Cl [Compound R926223, N2,N4-Bis(3-chloro-4-fluorophenyl)-5-fluoro-2,4-pyrimidinediamine] | < 5.00 | –
18 | < 5.00 | < 5.00 | CCOc1ccc(Nc2cc(Cl)nc(Nc3ccc(OCC)cc3)n2)cc1 [Compound R926072, N2,N4-Bis(4-ethoxyphenyl)-6-chloro-2,4-pyrimidinediamine] | < 5.00 | –
19 | 5.00 | 5.07 | Fc1cccc(Nc2ncc(F)c(Nc3ccc4c(c3)OCCO4)n2)c1 [Compound R926221, N4-(3,4-Ethylenedioxyphenyl)-N2-(3-fluorophenyl)-5-fluoro-2,4-pyrimidinediamine] | < 5.00 | –
20 | < 5.00 | < 5.00 | Cc1ccc(Nc2ncc(F)c(Nc3ccc(C)cc3)n2)cc1 [Compound R926225, N2,N4-Bis(4-methylphenyl)-5-fluoro-2,4-pyrimidinediamine] | < 5.00 | –
21 | – | – | O=C(c1cc2cc(Nc3ncc(F)c(Nc4cccc(O)c4)n3)ccc2o1)N1CCNCC1 [Compound R926502, 5-Fluoro-N4-(3-hydroxyphenyl)-N2-[2-(N-piperazino)carbonylbenzofuran-5-yl]-2,4-pyrimidinediamine Hydrogen Chloride Salt] | – | pIC50 [5]: < 5.00
22 | 5.62 | 5.32 | CCOc1ccc(Nc2ncc(F)c(Nc3ccc(OC)c(OC)c3)n2)cc1 [Compound R926145, N4-(3,4-Dimethoxyphenyl)-N2-(4-ethoxyphenyl)-5-fluoro-2,4-pyrimidinediamine] | 5.06 | pIC50 [6, 8]: < 5.00
